These are literature values, as cited in publication PMC7509555, “An In Vitro Study for Evaluating Permeability and Metabolism of Kurarinone” (Evidence-based Complementary and Alternative Medicine : eCAM, 2020).

The subject of this data set is HL-7702 cells. As to conditions: cited from earlier work.

Consider `C=C(C)[C@H](CC=C(C)C)Cc1c(O)cc(OC)c2c1O[C@H](c1ccc(O)cc1O)CC2=O` [Kurarinone], for which the cytotoxicity result was “remarkable cytotoxicity”.
